# Publication PMC8148468, “Shikimic acid protects skin cells from UV-induced senescence through activation of the NAD+-dependent deacetylase SIRT1” (Aging (Albany NY), 2021)
# How the values were obtained:
# Format in all cases: cell-based, human
# IL-6 = IL-6 mRNA levels (qPCR); conditions: UVB-irradiated HDF, SA 10, 25, 50 mM -/+ EX-527 1 μM
# Description: Figure 3 (A) Schematic representation of the protocol for senescence induction using UVB irradiation and study of EX527 involvement in the effect of Shikimic acid. Cells were treated with or without shikimic acid -/+ EX-527 from day 1 until day 7 after seeding, irradiated with UVB on days 2 and 5 and harvested for analysis on day 7. (B) Phase-contrast (left column) and bright field (right column) microscope images of β-Gal staining showing non-irradiated cells non-treated and treated with shikimic acid (10, 25 and 50 mM), UVB-irradiated cells non-treated and treated with shikimic acid (10, 25 and 50 mM), shikimic acid (10, 25 and 50 mM) + EX-527 1 μM and EX-527 1 μM. […] SIRT1 activity was then evaluated by analyzing acetylation of H3K9, H4K16 and p53K382 by Western blot. […]
# RNA was extracted from cell pellets using the Total RNA Purification Kit (Norgen, Canada), according to the manufacturer’s protocol. Extracted RNA was quantified using a NanoDrop® ND-1000 UV-Vis Spectrophotometer (Thermo Fisher Scientific, USA) and 300 ng of RNA were retrotranscribed to cDNA using the PrimeScriptTM RT reagent kit (Takara Bio Inc., Japan). cDNA was diluted 1/10 in ultrapure water and qPCR mix was prepared by adding cDNA (12 ng), SYBR green supermix (Bio Rad, USA), forward and reverse primers (0.2μM). […] The results were analyzed with Bio-Rad CFX Manager software. […]
# p21 = p21 mRNA levels (qPCR); conditions: UVB-irradiated HDF, SA treatment
# Description: RNA was extracted from cell pellets using the Total RNA Purification Kit (Norgen, Canada), according to the manufacturer’s protocol. […] The primers and their respective sequences are listed in Supplementary Table 1. qPCR protocol included one step at 95° C for 30 s, 40 cycles at 95° C for 10s, and 60° C for 1min. The results were analyzed with Bio-Rad CFX Manager software. BACT was used as a housekeeping gene to normalize gene expression. page 6: Supplementary Figure 6. Quantification (n=3) of the percentage of cells in each cell cycle phase and poliploydies in (A) non-irradiated cells treated with Shikimic acid at the indicated doses and (B) UVB-irradiated cells treated with Shikimic acid at the indicated doses, following the senescence induction method described in Figure 2A. (C) Relative p21 mRNA levels (n=3) in UVB-irradiated cells treated with Shikimic acid at the indicated doses, following the senescence induction method described in Figure 2A. (D) Second (PC-2) and third (PC-3) principal components in the fingerprint region (1800–950 cm−1) from the samples mentioned in Figure 4G. Student T-test, *p<0.05, **p<0.01, ***p<0.001. www.aging-us.com 6 AGING (1 picture or pasted object on this page, not shown here)
# [1] = test system: HDF cells (misfolded proteins); experiment: FTIRM analysis, beta-sheet to alpha-helix ratio; conditions: UVB-irradiated cells, SA 25 mM -/+ EX-527 1 μM
# Description: Figure 4 (A) SRB and Trypan blue cell viability assays performed in cells treated with or without Shikimic acid (5, 10, 25 and 50 mM) for 24h. (B) Apoptosis detection using the Annexin V-FITC/PI double staining followed by flow cytometry in non-irradiated and non-treated cells, irradiated and non-treated cells and irradiated cells treated with Shikimic acid (10, 25 and 50 mM). (C) Representation and statistical analysis of the percentage of apoptotic cells in each of the conditions analyzed. (D) Cell cycle analysis using PI staining followed by flow cytometry. (E) Relative p16^INK4a mRNA levels monitored by qPCR in the indicated conditions. Student T-test, *p<0.05. (F) Immunofluorescence of γH2AX in non-irradiated and non-treated cells, irradiated and non-treated cells and irradiated cells treated with Shikimic acid (10, 25 and 50 mM). […]
# FTIRM measurements were performed at the MIRAS beamline of ALBA Synchrotron using the internal (Globar®) source. […] The structure content of the amide I peak (1710-1598 cm−1) was determined by band deconvolution using Gaussian band fitting profiles (Origin 7.0 software). The position and number of peaks, which were assigned to specific types of secondary structures, were determined using the second derivative of the spectra.
# [2] = test system: H3K9ac (the target of SIRT1, SIRT2 and SIRT6); experiment: Sirtuin activity assay in HDF: H3K9ac levels (Western blot); conditions: UV conditions, -/+25mM SA -/+1μM EX-527
structure (smiles),measurement,setting,value
O=C(O)C1=C[C@@H](O)[C@@H](O)[C@H](O)C1 [Shikimic acid],IL-6 mRNA levels,IL-6,induced a reduction in the levels of expression of the inflammatory cytokine IL-6
same,p21 mRNA levels,p21,did not observe any clear effect
same,β-sheet/α-helix ratio (misfolded proteins),[1],inhibited these levels well below the ratio observed in control cells
same,H3K9ac/H3 levels under UV-induced senescence,[2],induced increased deacetylation of H3K9ac and H4K16ac
